Structures are written as SMILES. In brackets after ≈: the same amount, converted by molar mass. Some results are limits rather than exact numbers.

The values below come from ChEMBL document CHEMBL1667820, “Synthesis and antitubercular evaluation of novel substituted aryl and thiophenyl tethered dihydro-6H-quinolin-5-ones” (2011).

In the experiment the test system is Mycobacterium tuberculosis. Description: Antimycobacterial activity against Mycobacterium tuberculosis H37Rv by agar dilution method. It counts as functional.
Regarding `O=C1CCCc2nc(-c3ccccc3)ccc21`, the MIC stood at 12.5 µg/mL (≈ 56 µM).
In turn, `Cc1ccc(-c2ccc3c(n2)CCCC3=O)cc1` returned an MIC of 12.5 µg/mL (≈ 52.7 µM).
With `COc1ccc(-c2ccc3c(n2)CCCC3=O)cc1` the figure was 12.5 µg/mL (≈ 49.3 µM).
As to `O=C1CCCc2nc(-c3cccs3)ccc21`, 12.5 µg/mL (≈ 54.5 µM) was the least that counted as inhibitory (MIC).
With `O=C1CCCc2nc(-c3ccc(Cl)s3)ccc21` the figure was 6.25 µg/mL (≈ 23.7 µM).
With `O=C1CCCc2nc(-c3ccc(Br)s3)ccc21` the figure was 6.25 µg/mL (≈ 20.3 µM).
In turn, `CC1(C)CC(=O)c2ccc(-c3ccccc3)nc2C1` returned an MIC of 12.5 µg/mL (≈ 49.7 µM).
With `Cc1ccc(-c2ccc3c(n2)CC(C)(C)CC3=O)cc1` the figure was 6.25 µg/mL (≈ 23.6 µM); with `COc1ccc(-c2ccc3c(n2)CC(C)(C)CC3=O)cc1`, 12.5 µg/mL (≈ 44.4 µM).
The result for `CC1(C)CC(=O)c2ccc(-c3cccs3)nc2C1` reads 6.25 µg/mL (≈ 24.3 µM); that for `CC1(C)CC(=O)c2ccc(-c3ccc(Cl)s3)nc2C1`, 3.13 µg/mL (≈ 10.7 µM).
In the case of `CC1(C)CC(=O)c2ccc(-c3ccc(Br)s3)nc2C1`, the lowest concentration to inhibit growth (MIC) was 3.13 µg/mL (≈ 9.31 µM).
With `O=C1c2ccc(-c3ccccc3)nc2CCC1(CO)CO` the figure was over 25 µg/mL; with `Cc1ccc(-c2ccc3c(n2)CCC(CO)(CO)C3=O)cc1`, over 25 µg/mL; with `COc1ccc(-c2ccc3c(n2)CCC(CO)(CO)C3=O)cc1`, over 25 µg/mL.
Consider `O=C1c2ccc(-c3cccs3)nc2CCC1(CO)CO`, for which the MIC was over 25 µg/mL.
`O=C1c2ccc(-c3ccc(Cl)s3)nc2CCC1(CO)CO` displayed an MIC of over 25 µg/mL.
With `O=C1c2ccc(-c3ccc(Br)s3)nc2CCC1(CO)CO` the figure was over 25 µg/mL; with `CC[C@@H](CO)NCCN[C@@H](CC)CO` [ETHAMBUTOL], 3.13 µg/mL (≈ 15.3 µM); with `NNC(=O)c1ccncc1` [ISONIAZID], 0.1 µg/mL (≈ 0.729 µM).
As to `NC(=O)c1cnccn1` [PYRAZINAMIDE], the MIC turned out to be 50 µg/mL (≈ 406 µM).
